Reference: patent US10912759B2 (priority 2018, dated 2021)

Assays:
SprX = type: cell-based, S. aureus; conditions: 1% (w/v), one hour, RNA level by RT-PCR
Source text: (§1) FIG. 10 is a graph showing the effect of the topical gel on S. aureus gene expression compared to mupirocin treatment. Results are expressed as percent change in intensity values.
(§2) FIG. 11 is a graph showing the effect of the topical gel on S. aureus gene expression compared to control and mupirocin treatment. Results are expressed as gene expression intensity ratios.
(§3) In an effort to elucidate the mechanism of action of the topical gel on S. aureus as well as to examine any commonalities or differences in Staphylococcal response to treatment, transcriptional response was evaluated. S. aureus was either 1) grown alone as a control, 2) grown in 1% (w/v) topical gel, or 3) grown in 1% (w/v) Mupirocin for one hour. Cells were harvested and total RNA was extracted. Reverse Transcriptase polymerase chain reaction using gene specific primers was utilized to determine the RNA levels for the specific genes RecA, SprX, and PsrA. RecA is a protein specific for SOS response in Staphylococcus indicative of a need to repair DNA damage. SprX is a small RNA associated with Staphylococcus antibiotic resistance. PsrA regulates expression of proteins in the cell wall of Staphylococcus which are both essential for bacterial survival and antibiotic resistance.

PsrA = experiment: S. aureus gene expression by RT-PCR; type: cell-based; conditions: 1% (w/v), one hour, RNA level by RT-PCR
Source text: as §1, §2, §3

S. aureus = experiment: MIC and MBC of topical gel vs. Mupirocin; type: cell-based, Staphylococcus aureus; conditions: 0-10% w/v, overnight at 37° C., aliquots plated, lack of any growth
Procedure: MIC was determined by visually observing where turbid growth stopped, MBC was determined by taking aliquots from each tube, plating onto media, and observation for lack of any growth.
Mupirocin is the standard ointment for treatment of S. aureus topical infections. […] MIC was determined by visually observing where turbid growth stopped, MBC was determined by taking aliquots from each tube, plating onto media, and observation for lack of any growth.

Compound: C/C(=C\C(=O)OCCCCCCCCC(=O)O)C[C@@H]1OC[C@H](C[C@@H]2O[C@H]2[C@@H](C)[C@H](C)O)[C@@H](O)[C@H]1O [Mupirocin]
- reduction of expression of SprX (SprX): 78%
- reduction of expression of PsrA (PsrA): 56%
- MBC values compared to topical gel (S. aureus): lower MBC values
